Results on 92 compounds are retold here after PubChem BioAssay AID489020 (Sanford-Burnham Center for Chemical Genomics, 2010).

pIC50: −log10 of the molar value. Activity calls are given as the source filed them.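 Rule for the calls: active = mean IC50, the dose halving TNF-driven NF-kB light signal, at or below a set limit; inactive = the rest.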 A value given as a limit tells only on which side of the number the result lay.

The subject of the experiment is HEK-293T NF-kB-Luc, TNFa-induced, luminescence, 14 h. The experiment in a line: inhibitors of TNFa-induced NF-kB reporter, dose response, counter-screen for BCR/TCR NF-kB inhibitor project, cell-based, HEK-293T NF-kB-Luc, luminescence, hits from both screens (AID 489020).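 Note: TNF-alpha stimulus at 0.1 ng/mL added with the seeded cells; selectivity counterscreen for hits from B- and T-cell receptor NF-kB screens.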
One may read the pIC50 as −log10 of the IC50, conventionally taken in molar units. With `COCCn1c(C)cc(C2=NNC(=NC3CC3)SC2)c1C`, the pIC50 is 6.48.
On to `O=C(COC(=O)c1ccc[nH]c1=O)Nc1ccc(N2CCCCC2)cc1`, for which the pIC50 was 5.92.
Still for that read-out and setting: then `Cc1nn(-c2ccccc2)c(C)c1/C=N/NC(=O)c1cc(-c2cccs2)[nH]n1`, with 5.45; and `O=C(/C=C/c1ccccc1)Nc1cccc(C(=O)O)c1`, with 5.59; and `COC1=CC(=O)[C@]2(C=C1OC)OC[C@@H]1Oc3c(ccc4c3C=CC(C)(C)O4)C(=O)[C@@H]12`, with 6.21.
By IC50 is commonly meant the point on the concentration scale where inhibition reaches its midpoint. For the compound `c1ccc2sc(Sc3ncnc4sccc34)nc2c1`, the IC50 is 21400 nM (inactive).
For `CN=c1scc(-c2ccccc2F)n1/N=C/c1ccc[nH]1`, the pIC50 was 5.92.
On to `COc1cc(/C=N/NC(=S)Nc2cccc(C(=O)O)c2)ccc1O`, for which the IC50 is 23400 nM (inactive).
`C#CC(=O)N(c1ccc(OC)c(OC)c1)C(C(=O)NC1CCCC1)c1cccs1` (configuration not stated): the pIC50 was 5.32.
Regarding `C[C@@H]1O[C@@H](O[C@@H]2C=C3CC[C@@H]4C(CC[C@]5(C)[C@@H](c6ccc(=O)oc6)CC[C@]45O)[C@@]3(C)CC2)[C@H](O)[C@H](O)[C@H]1O` (some centres not stated), the pIC50 was over 6.80.
Consider `Cc1cc2sc3ccc(C#CC4(O)CCCCC4)cc3c(=O)c2cc1C`, for which the pIC50 was over 6.80.
Take `COc1ccc(OC)c(C2C3=C(COC3=O)Nc3cc4c(cc32)OCO4)c1` (configuration not stated): the IC50 was > 80000 nM (inactive).
Turning to `COc1ccc(CNc2ncc(-c3ccc(F)cc3)n2C)c2ccccc12`, the pIC50 is 4.75.
As for `COc1ccc(/C=C/c2cc(-c3ccc(C)cc3)o[n+]2C)cc1`, the pIC50 was 5.17.
For the compound `COc1cc(CSc2nnnn2-c2ccc(C)cc2)cc(OC)c1OC`, the pIC50 is 6.33.
On the same count and under the same terms, then `CN(C)c1cc[n+](CC(=O)c2ccc(-c3ccccc3)cc2)cc1`, with 5.40; and `N#Cc1c(NC(=O)CSc2ncn[nH]2)sc2c1CCCC2`, with 6.21; and `C[C@@H]1O[C@@H](O[C@@H]2C=C3CCC4C(CC[C@]5(C)[C@@H](c6ccc(=O)oc6)CC[C@]45O)[C@@]3(C)CC2)[C@H](O)[C@H](O)[C@H]1O` (some centres not stated), with over 6.80.
Take `Cc1ccc(Cn2ccsc2=NC(=O)CCl)cc1`: the negative-log IC50 (pIC50) is 4.81.
Still for that read-out and setting: then `Nc1ncnc2c1ccn2[C@@H]1O[C@H](CO)[C@@H](O)[C@H]1O`, with 5.13; and `COc1ccc(CN(C)c2ccc(S(=O)(=O)N3CCN(C)CC3)cc2[N+](=O)[O-])cc1OC`, with over 6.80.
Turning to `O=C(Nc1nc(-c2ccc(F)c(F)c2)cs1)c1ccc(OCC2CCCO2)cc1` (configuration not stated), the pIC50 is 5.81.
On the same count and under the same terms, in the case of `Cc1ccc(C(=O)CN2C(=O)c3ccccc3S2(=O)=O)cc1` it was 5.72; in that of `COc1ccc(-c2c[n+]3c(n2-c2ccc(C)cc2)CCCCC3)cc1`, 5.79.
The same measure, in the same setting: in the case of `COc1ccc(C(=O)CN2C(=O)c3ccccc3S2(=O)=O)cc1` it was 6.10.
Same read-out and setting: then `CC(=O)c1cn(Cc2ccccc2C#N)c2ccccc12`, with 6.06.
As to `COc1ccc(/C=C2\SC(=O)N(CCCC(=O)Nc3cc(Cl)ccc3C(=O)O)C2=O)cc1`, the pIC50 is 5.95.
The same measure, in the same setting: in the case of `C#CC(=O)N(c1ccc(OC)cc1OC)C(C(=O)NC1CCCC1)c1cccs1` (configuration not stated) it was 5.30; in that of `O=C(CCl)N1CCCC1c1ccc2c(c1)OCCO2` (configuration not stated), 5.03; in that of `COc1ccc(CCNc2ncnc3sc(C)cc23)cc1OC`, over 6.80.
In the case of `COc1cc(NC(C)CCCN)c2ncccc2c1` (configuration not stated), the IC50 was 22900 nM (inactive).
`CC1CCN(c2nc3ccc(C(=O)O)cc3s2)CC1`: the pIC50 was 5.39.
Same read-out and setting: in the case of `COc1ccc(CCNc2ncnc3sccc23)cc1OC` it was over 6.80; in that of `O=C(NCCc1ccccc1F)c1ccc2c(c1)OCCO2`, 5.85; in that of `COc1ccc(NS(=O)(=O)c2cccc(NC(=O)c3ccc(Cl)nc3)c2)cc1`, 6.51.
Same read-out and setting: then `COc1ccc(CCNc2c(C)c(C)nc3ncnn23)cc1`, with 6.36.
Consider `O=C(CSc1nnnn1C1CC2CCC1C2)Nc1ccnc2ccccc12` (configuration not stated), for which the pIC50 is over 6.80.
As to `CCN1/C(=C/c2ccc3cc(C)ccc3[n+]2CC)Sc2ccccc21`, the pIC50 was 6.49.
On the same count and under the same terms, in the case of `Cc1ccc2nc(NC(=O)CCCC(=O)O)sc2c1` it was 5.50.
Same read-out and setting: then `Cc1cc(NNC(=O)Nc2cccc(Cl)c2)nc2c1c(C)nn2C`, with 6.33; and `O=C1/C(=C/c2ccccc2)C[C@@]2(O)[C@H]3Cc4ccc(O)c5c4[C@@]2(CCN3CC2CC2)C1O5` (some centres not stated), with 5.06; and `CCOC(=O)C1CCCN(S(=O)(=O)c2ccc(S(=O)(=O)N(CC)CC)cc2)C1` (configuration not stated), with 6.25.
On the same count and under the same terms, then `Cc1ccc(OCCN2CCN(c3ncnc4sc(C)c(C)c34)CC2)cc1`, with over 6.80.
`Cc1ccnc(NC(=O)CCCOc2cc(=O)n(C)c3ccccc23)c1`: the pIC50 was 5.23.
On to `CN(C)c1ccc(-c2n(C)c3ccccc3[n+]2C)cc1`, for which the pIC50 is 5.18.
The same measure, in the same setting: in the case of `CCCCCc1ccc(OCCCC[n+]2cccc(C)c2)c(CCCCC)c1` it was 5.22; in that of `COc1ccc(C[C@H]2NC[C@H](O)[C@H]2OC(C)=O)cc1`, over 6.80.
Same read-out and setting: in the case of `COc1ccc(-c2nc(-c3ccccn3)no2)cc1` it was 5.70.
As to `O=C(NCCNCCO)C1(C(F)(F)F)C/C(=C\CCO)CCCO1` (configuration not stated), the IC50 is > 80000 nM (inactive).
For `O=C(c1ccc(Br)cc1)c1cc([N+](=O)[O-])ccc1N1CCCCC1`, the IC50 is 24500 nM (inactive).
Regarding `Cn1nc(CC(=O)Nc2ccc3c(c2)CCC3)c2ccccc2c1=O`, the pIC50 was 6.66.
The same measure, in the same setting: then `CC(=O)OC[C@]12CCC(C)=C[C@H]1O[C@@H]1[C@H](O)[C@@H](OC(C)=O)[C@@]2(C)[C@]12CO2`, with over 6.80.
On the same count and under the same terms, then `COc1cc(NC(=O)COc2cc(O)c3c(c2)OC(C)(C)CC3=O)cc(OC)c1OC`, with 6.42; and `CCOc1ccc(NC(=O)Nc2cccc(C(=O)O)c2)cc1`, with 5.73.
Regarding `COc1cccc2c1C(=O)c1c(O)c3c(c(O)c1C2=O)C[C@@](O)(C(=O)CO)C[C@@H]3O[C@H]1C[C@H](N)[C@H](O)[C@H](C)O1`, the IC50 was 26900 nM (inactive).
On to `C=C1C(=O)O[C@@H]2C[C@@H](C)[C@@H]3C=CC(=O)[C@@]3(C)[C@@H](OC(C)=O)[C@H]12`, for which the IC50 is > 80000 nM (inactive).
As for `CC1(c2ccc3ccccc3c2)NC(=O)N(CC(=O)N2CCN(Cc3ccc(C#N)cc3)CC2)C1=O` (configuration not stated), the pIC50 is 6.68.
Turning to `Cn1nc(CC(=O)Nc2ccc3c(c2)OCCO3)c2ccccc2c1=O`, the negative logarithm of the IC50 (pIC50) was 6.22.
`N=c1c2c(n(Cc3ccc(Br)cc3)c3c1CCC3)CCCC2`: the pIC50 is 5.37.
On to `COc1cc(SC)ccc1C(=O)Nc1nc2ccccc2[nH]1`, for which the pIC50 is 6.70.
Same read-out and setting: then `Cc1cc(C(=O)COC(=O)c2ccccc2O)c(C)n1CC1CCCO1` (configuration not stated), with 6.42; and `C[C@@H]1C[C@@H]2O[C@H]2/C=C\C=C\C(=O)Cc2c(Cl)c(O)cc(O)c2C(=O)O1`, with 5.12.
Same read-out and setting: in the case of `c1ccc(-c2ccc(-c3nc(-c4ccccn4)no3)cc2)cc1` it was 5.77.
Take `COc1ccccc1C(=O)Nc1nc(-c2ccc(S(=O)(=O)N3CCOCC3)cc2)cs1`: the pIC50 is 5.93.
As for `O=C(CCl)N=c1sccn1Cc1ccc(Cl)cc1Cl`, the IC50 is 21000 nM (inactive).
Consider `CC[n+]1c(C=C2C=C(C)OC(C)=C2)sc2ccccc21`, for which the negative logarithm of the IC50 (pIC50) is 5.72.
On the same count and under the same terms, in the case of `CCn1c(C)nc2cc(-c3nc4n(n3)Cc3ccccc3-4)ccc21` it was 6.62.
Turning to `Nc1nc(Cl)nc2c1ncn2C1CC(O)C(CO)O1` (configuration not stated), the IC50 is > 80000 nM (inactive).
Take `COC(=O)Cc1ccc(NC(=O)c2ccc(C(C)(C)C)cc2)cc1`: the negative logarithm of the IC50 (pIC50) was 6.36.
As for `CC(=O)OC(C)(C)/C=C/C(=O)[C@](C)(O)C1[C@H](O)C[C@@]2(C)C3CC=C4C(C[C@H](O)C(=O)C4(C)C)[C@]3(C)C(=O)C[C@]12C` (some centres not stated), the pIC50 is 4.95.
For `O=S(=O)(NCC1CCCO1)c1ccc(-c2ccc(S(=O)(=O)NCC3CCCO3)cc2)cc1` (configuration not stated), the pIC50 is 6.49.
Same read-out and setting: in the case of `C=CC(=O)Nc1ccc(Nc2nc(NC3CCC(N(C)C)CC3)nc3c2ncn3C(C)C)cc1` (configuration not stated) it was 6.39.
In the case of `C=C1C(=O)O[C@@H]2C[C@@H](C)[C@@H]3C=CC(=O)[C@@]3(C)[C@@H](O)[C@H]12`, the IC50 is > 80000 nM (inactive).
`CCCCCCCCCCCCn1ccc(=N)cc1`: the pIC50 is 5.62.
Same read-out and setting: in the case of `CC1CCc2c(sc(NC(=O)CSc3ncn[nH]3)c2C#N)C1` (configuration not stated) it was 6.21; in that of `C[n+]1c(-c2ccccc2)c2cc(N)ccc2c2ccc(N)cc21`, 5.08.
With `COc1cc([N+](=O)[O-])cc(/C=N/NC(=O)c2ccc(NC(=O)c3ccc(C)cc3)cc2)c1O`, the IC50 was 22500 nM (inactive).
For the compound `O=C(CCl)N=c1sccn1Cc1ccccc1Cl`, the pIC50 is 5.00.
The same measure, in the same setting: in the case of `CC(C)c1ccc(-c2nnn(CCC(=O)O)n2)cc1` it was 6.42.
For `CCC(C)(C)c1ccc(OCCCC[n+]2ccc(C)cc2)c(C(C)(C)CC)c1`, the pIC50 is 5.09.
Take `C=C1C(=O)O[C@@H]2C[C@@H](C)[C@@H]3C=CC(=O)[C@@]3(C)[C@@H](OC(=O)CC(=O)O[C@H]3[C@@H]4C(=C)C(=O)O[C@@H]4C[C@@H](C)[C@@H]4C=CC(=O)[C@]43C)[C@H]12`: the pIC50 was 5.83.
Same read-out and setting: then `CCN(CC)S(=O)(=O)c1ccc(Oc2ccc(S(=O)(=O)N(CC)CC)cc2)cc1`, with 6.34; and `N=c1c2c(-c3ccccc3)c(-c3ccccc3)n(Cc3ccccc3)c2ncn1CCCn1ccnc1`, with 5.16.
As to `Cc1cc(Cl)c(S(=O)(=O)N2CCN(c3ccc(F)cc3)CC2)cc1OCC(=O)NC1CCCCC1`, the pIC50 was over 6.80.
On to `CCn1c(C)cc(C(=O)COC(=O)c2ccccc2[N+](=O)[O-])c1C`, for which the pIC50 was over 6.80.
The same measure, in the same setting: in the case of `CC(C)(C)c1ccc(C(=O)Nc2ccc(CC(=O)O)cc2)o1` it was 6.77.
As for `CCCCCCCCNc1ncnc2ccccc12`, the pIC50 was over 6.80.
In the case of `CCOc1ccc(/C=C2\SC(=S)N(CCC(=O)O)C2=O)cc1`, the IC50 is 34200 nM (inactive).
For the compound `CCN1/C(=C\c2ccc3ccccc3[n+]2CC)Sc2cc(C)ccc21`, the pIC50 was 6.20.
Still for that read-out and setting: then `O=C(NCCc1ccccc1)c1ccc2c(c1)OCCCO2`, with 6.05; and `N#Cc1c(NC(=O)CSc2ncn[nH]2)sc2c1CCCCC2`, with 6.74; and `Cc1sc2ncnc(N3CCN(CCOc4ccc(Cl)cc4)CC3)c2c1C`, with over 6.80.
